Source: US5129937A, “Pyridyloxypyrimidine derivatives, preparation process thereof, and herbicidal compositions containing the same as active ingredients” (Mitsui Toatsu Chemicals Incorporated, priority 1989, dated 1992)

Columns and labels:
Assay type in all cases: in vivo
[1] = tested on: Barnyardgrass (Echinochloa crus-galli); assay: Upland Soil Application Test; conditions: 30 g ai/a; soil application before emergence, wettable powder; observed 30 days later
Protocol: (§1) Resin-made 1/2500-are pots were filled with the soil of an upland field. After they were fertilized, soybean, corn and cotton were seeded and 2-3 cm soil covering was applied. Seeds of redroot pigweed, morningglory (Ipomoea purpurea), common lambsquarters, barnyardgrass, green foxtail, large crabgrass, foxtail meadow and johnsongrass had been uniformly mixed with the soil. They were allowed to germinate in a green house. One day later (before emergence of weeds), a wettable powder prepared from a predetermined amount of each test compound in a similar manner to the method described in Formulation Example 1 was diluted with water and then sprayed evenly at an application rate equal to 10 l per are onto the surface of the soil by means of a pressure-operated ULV (ultra low volume) sprayer. Influence to the crops and weeds were observed 30 days later. The results are shown in Table 3, in which the degree of damages of each test plant and the degree of injury to each crop were determined by comparing the air-dried weights of the test plant and crop with those of the corresponding plant and crop in untreated pots and are shown in accordance with the following standard: […]

Common lambsquarters [2] = assay: Upland Soil Application Test; conditions: 30 g ai/a; soil application before emergence, wettable powder; observed 30 days later
Protocol: as §1

[3] = tested on: Crabgrass (Digitaria adsendens); assay: Upland Soil Application Test; conditions: 30 g ai/a; soil application before emergence, wettable powder; observed 30 days later
Protocol: as §1

[4] = tested on: Foxtail (Setaria viridis); assay: Upland Soil Application Test; conditions: 30 g ai/a; soil application before emergence, wettable powder; observed 30 days later
Protocol: as §1

Foxtail meadow [5] = assay: Upland Soil Application Test; conditions: 30 g ai/a; soil application before emergence, wettable powder; observed 30 days later
Protocol: as §1

Johnsongrass [6] = assay: Upland Soil Application Test; conditions: 30 g ai/a; soil application before emergence, wettable powder; observed 30 days later
Protocol: as §1

Redroot Pigweed [7] = assay: Upland Soil Application Test; conditions: 30 g ai/a; soil application before emergence, wettable powder; observed 30 days later
Protocol: as §1

Corn (Zea maize) [8] = assay: Upland Soil Application Test, crop injury; conditions: 30 g ai/a; soil application before emergence, wettable powder; observed 30 days later
Protocol: as §1

[9] = tested on: Cotton (Gossypium indicum); assay: Upland Soil Application Test, crop injury; conditions: 30 g ai/a; soil application before emergence, wettable powder; observed 30 days later
Protocol: as §1

Soybean (Glycine max) [10] = assay: Upland Soil Application Test, crop injury; conditions: 30 g ai/a; soil application before emergence, wettable powder; observed 30 days later
Protocol: as §1

[11] = tested on: Barnyardgrass (Echinochloa crus-galli); assay: Upland Foliar Application Test; conditions: 30 g ai/a; foliar application at 2-3 leaf stage, emulsion; observed on the 30th day
Excerpt: (§2) Resin-made 1/10000-are pots were filled with the soil of an upland field. Redroot pigweed, morningglory (Ipomoea pupurea), common lambsquarters, foxtail meadow, johnsongrass, barnyardgrass, green foxtail, large crabgrass, soybean, corn and cotton were separately seeded and were allowed to germinate in a green house. When each plant grew to the stage of 2-3 leaves, an emulsion formulated from a predetermined amount of each test compound in a similar manner to the method described in Formulation Example 11 was diluted with water and then sprayed at a predetermined application rate by means of a pressure-operated ULV (ultra low volume) sprayer. The application rate was controlled at 5 l per are. Influence to the crops and weeds were observed on the 30th day after the spray of the herbicides. The results are shown in Table 4 in which the degree of damages of each test plant and the degree of injury to each crop are shown in a similar manner to Test 2.

Common lambsquarters [12] = assay: Upland Foliar Application Test; conditions: 30 g ai/a; foliar application at 2-3 leaf stage, emulsion; observed on the 30th day
Excerpt: as §2

[13] = tested on: Crabgrass (Digitaria adsendens); assay: Upland Foliar Application Test; conditions: 30 g ai/a; foliar application at 2-3 leaf stage, emulsion; observed on the 30th day
Excerpt: as §2

[14] = tested on: Foxtail (Setaria viridis); assay: Upland Foliar Application Test; conditions: 30 g ai/a; foliar application at 2-3 leaf stage, emulsion; observed on the 30th day
Excerpt: as §2

Foxtail meadow [15] = assay: Upland Foliar Application Test; conditions: 30 g ai/a; foliar application at 2-3 leaf stage, emulsion; observed on the 30th day
Excerpt: as §2

Johnsongrass [16] = assay: Upland Foliar Application Test; conditions: 30 g ai/a; foliar application at 2-3 leaf stage, emulsion; observed on the 30th day
Excerpt: as §2

Redroot Pigweed [17] = assay: Upland Foliar Application Test; conditions: 30 g ai/a; foliar application at 2-3 leaf stage, emulsion; observed on the 30th day
Excerpt: as §2

Corn (Zea maize) [18] = assay: Upland Foliar Application Test, crop injury; conditions: 30 g ai/a; foliar application at 2-3 leaf stage, emulsion; observed on the 30th day
Excerpt: as §2

[19] = tested on: Cotton (Gossypium indicum); assay: Upland Foliar Application Test, crop injury; conditions: 30 g ai/a; foliar application at 2-3 leaf stage, emulsion; observed on the 30th day
Excerpt: as §2

Soybean (Glycine max) [20] = assay: Upland Foliar Application Test, crop injury; conditions: 30 g ai/a; foliar application at 2-3 leaf stage, emulsion; observed on the 30th day
Excerpt: as §2

Rice (Oryza sativa) [21] = assay: Submerged Soil Treatment Test (Pre-Emergence Treatment), crop injury; conditions: 30 g ai/a, granule, transplanted rice, observed 30 days later
Protocol: (§3) 1/5000-are Wagner pots were filled with soil. Seeds or tubers of barnyardgrass, bulrush and Sagittaria pygmaea were seeded or planted under submerged condition. Two pairs of rice seedlings (2-3 leaf stage), which had been reared in advance, were transplanted to each pot and were allowed to germinate in a green house. Each pair consisted of two rice seedlings. On day later (before emergence of weeds), each pot was treated with a granule which had been prepared by processing a predetermined amount of the test composition in accordance with a similar method to the method described in Formulation Example 9. The state of emergence of weeds and the state of injury of rice were observed 30 days later. In the table, the degrees of damages of the test plants and the degrees of injury of rice are shown in a similar manner to Example 2.

[22] = tested on: Arrowhead sp. (Sagittaria pygmaea); assay: Submerged Soil Treatment Test (Growth Stage Treatment); conditions: 30 g ai/a, growth stage treatment (barnyardgrass two-leaf stage), granule, observed 30 days later
Protocol: as §3, with “allowed to grow in a” for “allowed to germinate in a”, “rice seedlings. When the barnyardgrass grew to the two-leaf stage, each pot” for “rice seedlings. On day later (before emergence of weeds), each pot”, “injury of the rice are” for “injury of rice are”

[23] = tested on: Barnyardgrass (Echinochloa crus-galli); assay: as above; conditions: 30 g ai/a, growth stage treatment (barnyardgrass two-leaf stage), granule, observed 30 days later
Protocol: as §3, with “allowed to grow in a” for “allowed to germinate in a”, “rice seedlings. When the barnyardgrass grew to the two-leaf stage, each pot” for “rice seedlings. On day later (before emergence of weeds), each pot”, “injury of the rice are” for “injury of rice are”

[24] = tested on: Bulrush (Scirpus juncoides); assay: as above; conditions: 30 g ai/a, growth stage treatment (barnyardgrass two-leaf stage), granule, observed 30 days later
Protocol: as §3, with “allowed to grow in a” for “allowed to germinate in a”, “rice seedlings. When the barnyardgrass grew to the two-leaf stage, each pot” for “rice seedlings. On day later (before emergence of weeds), each pot”, “injury of the rice are” for “injury of rice are”

Rice (Oryza sativa) [25] = assay: Submerged Soil Treatment Test (Growth Stage Treatment), crop injury; conditions: 30 g ai/a, growth stage treatment (barnyardgrass two-leaf stage), granule, transplanted rice, observed 30 days later
Protocol: as §3, with “allowed to grow in a” for “allowed to germinate in a”, “rice seedlings. When the barnyardgrass grew to the two-leaf stage, each pot” for “rice seedlings. On day later (before emergence of weeds), each pot”, “injury of the rice are” for “injury of rice are”

SMILES	Herbicidal effects Barnyardgrass (Echinochloa crus-galli) [1]	Herbicidal effects Common lambquarters (Common lambsquarters [2])	Herbicidal effects Crabgrass (Digitaria adsendens) [3]	Herbicidal effects Foxtail (Setaria viridis) [4]	Herbicidal effects Foxtail meadow (Foxtail meadow [5])	Herbicidal effects Johnsongrass (Johnsongrass [6])	Herbicidal effects Redroot Pigweed (Redroot Pigweed [7])	Crop injury Corn (Zea maize) (Corn (Zea maize) [8])	Crop injury Cotton (Gossypium indicum) [9]	Crop injury Soybean (Glycine max) (Soybean (Glycine max) [10])	Herbicidal effects Barnyardgrass (Echinochloa crus-galli) [11]	Herbicidal effects Common lambquarters (Common lambsquarters [12])	Herbicidal effects Crabgrass (Digitaria adsendens) [13]	Herbicidal effects Foxtail (Setaria viridis) [14]	Herbicidal effects Foxtail meadow (Foxtail meadow [15])	Herbicidal effects Johnsongrass (Johnsongrass [16])	Herbicidal effects Redroot Pigweed (Redroot Pigweed [17])	Crop injury Corn (Zea maize) (Corn (Zea maize) [18])	Crop injury Cotton (Gossypium indicum) [19]	Crop injury Soybean (Glycine max) (Soybean (Glycine max) [20])	further results
COc1cc(OC)nc(Oc2ccccc2C=O)n1 [B, reference compound]	3 (11-40 (Medium damages))	3 (11-40 (Medium damages))	4 (6-10 (Severe damages))	4 (6-10 (Severe damages))	4 (6-10 (Severe damages))	4 (6-10 (Severe damages))	3 (11-40 (Medium damages))	5 (0-5 (Death))	5 (0-5 (Death))	5 (0-5 (Death))	4 (6-10 (Severe damages))	3 (11-40 (Medium damages))	4 (6-10 (Severe damages))	4 (6-10 (Severe damages))	4 (6-10 (Severe damages))	4 (6-10 (Severe damages))	3 (11-40 (Medium damages))	5 (0-5 (Death))	5 (0-5 (Death))	5 (0-5 (Death))	Crop injury Rice (Oryza sativa) (Rice (Oryza sativa) [21]): 5 (0-5 (Death)); Herbicidal effects Arrowhead sp. (Sagittaria pygmaea) [22]: 4 (6-10 (Severe damages)); Herbicidal effects Barnyardgrass (Echinochloa crus-galli) [23]: 5 (0-5 (Death)); Herbicidal effects Bulrush (Scirpus juncoides) [24]: 5 (0-5 (Death)); Crop injury Rice (Oryza sativa) (Rice (Oryza sativa) [25]): 5 (0-5 (Death))
CCOC(=O)c1ncccc1Oc1nc(OC)cc(OC)n1 [A, reference compound]	3 (11-40 (Medium damages))	4 (6-10 (Severe damages))	4 (6-10 (Severe damages))	5 (0-5 (Death))	5 (0-5 (Death))	5 (0-5 (Death))	4 (6-10 (Severe damages))	5 (0-5 (Death))	5 (0-5 (Death))	5 (0-5 (Death))	5 (0-5 (Death))	4 (6-10 (Severe damages))	4 (6-10 (Severe damages))	5 (0-5 (Death))	5 (0-5 (Death))	5 (0-5 (Death))	4 (6-10 (Severe damages))	5 (0-5 (Death))	5 (0-5 (Death))	5 (0-5 (Death))	Crop injury Rice (Oryza sativa) (Rice (Oryza sativa) [21]): 5 (0-5 (Death)); Herbicidal effects Arrowhead sp. (Sagittaria pygmaea) [22]: 4 (6-10 (Severe damages)); Herbicidal effects Barnyardgrass (Echinochloa crus-galli) [23]: 5 (0-5 (Death)); Herbicidal effects Bulrush (Scirpus juncoides) [24]: 4 (6-10 (Severe damages)); Crop injury Rice (Oryza sativa) (Rice (Oryza sativa) [25]): 5 (0-5 (Death))
COc1cc(OC)nc(Oc2cccnc2C(OC)OC)n1 [Compound No. 2, 3-(4.6-dimethoxy-2-pyrimidinyloxy)-2-pyridinecarboxaldehyde dimethylacetal]	4 (6-10 (Severe damages))	5 (0-5 (Death))	5 (0-5 (Death))	5 (0-5 (Death))	5 (0-5 (Death))	5 (0-5 (Death))	4 (6-10 (Severe damages))	0 (91-100 (No damages))	0 (91-100 (No damages))	0 (91-100 (No damages))	4 (6-10 (Severe damages))	4 (6-10 (Severe damages))	4 (6-10 (Severe damages))	4 (6-10 (Severe damages))	4 (6-10 (Severe damages))	5 (0-5 (Death))	5 (0-5 (Death))	0 (91-100 (No damages))	0 (91-100 (No damages))	0 (91-100 (No damages))	Crop injury Rice (Oryza sativa) (Rice (Oryza sativa) [21]): 0 (91-100 (No damages)); Herbicidal effects Arrowhead sp. (Sagittaria pygmaea) [22]: 4 (6-10 (Severe damages)); Herbicidal effects Barnyardgrass (Echinochloa crus-galli) [23]: 4 (6-10 (Severe damages)); Herbicidal effects Bulrush (Scirpus juncoides) [24]: 4 (6-10 (Severe damages)); Crop injury Rice (Oryza sativa) (Rice (Oryza sativa) [25]): 0 (91-100 (No damages))
